In ChEMBL document CHEMBL1137216, “Identification of a new scaffold for opioid receptor antagonism based on the 2-amino-1,1-dimethyl-7-hydroxytetralin pharmacophore” (J Med Chem, 2004) one finds Ki and Ke data, which are given here for 16 compounds.

For test [1], the target named is T1, Delta-type opioid receptor (Homo sapiens, UniProt P41143). As to the kind of experiment: Inhibition of [3H]C1-DPDPE binding to human delta opioid receptor expressed in CHO cells. It is filed as cell-based.
Test [2] deals with T2, Mu-type opioid receptor (Homo sapiens, UniProt P35372). As to the kind of experiment: Inhibition of [3H]DAMGO binding to human Mu opioid receptor expressed in CHO cells. It is filed as cell-based.
T2 sequence (P35372 whole entry): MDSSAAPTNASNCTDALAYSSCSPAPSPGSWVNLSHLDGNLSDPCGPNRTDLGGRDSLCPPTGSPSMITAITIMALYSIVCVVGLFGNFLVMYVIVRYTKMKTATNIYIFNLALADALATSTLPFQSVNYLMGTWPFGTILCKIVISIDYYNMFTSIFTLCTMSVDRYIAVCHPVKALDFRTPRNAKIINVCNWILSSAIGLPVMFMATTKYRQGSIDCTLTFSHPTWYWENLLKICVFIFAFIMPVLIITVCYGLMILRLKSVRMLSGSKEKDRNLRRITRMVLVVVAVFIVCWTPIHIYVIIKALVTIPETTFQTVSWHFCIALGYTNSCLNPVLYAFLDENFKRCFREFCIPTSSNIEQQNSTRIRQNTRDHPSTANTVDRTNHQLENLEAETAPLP
The target of test [3] is T3, Kappa-type opioid receptor (Homo sapiens, UniProt P41145). As to the kind of experiment: Inhibition of [3H]U-69593 binding to human kappa opioid receptor expressed in CHO cells. It is filed as cell-based.
T3 sequence (P41145 whole entry): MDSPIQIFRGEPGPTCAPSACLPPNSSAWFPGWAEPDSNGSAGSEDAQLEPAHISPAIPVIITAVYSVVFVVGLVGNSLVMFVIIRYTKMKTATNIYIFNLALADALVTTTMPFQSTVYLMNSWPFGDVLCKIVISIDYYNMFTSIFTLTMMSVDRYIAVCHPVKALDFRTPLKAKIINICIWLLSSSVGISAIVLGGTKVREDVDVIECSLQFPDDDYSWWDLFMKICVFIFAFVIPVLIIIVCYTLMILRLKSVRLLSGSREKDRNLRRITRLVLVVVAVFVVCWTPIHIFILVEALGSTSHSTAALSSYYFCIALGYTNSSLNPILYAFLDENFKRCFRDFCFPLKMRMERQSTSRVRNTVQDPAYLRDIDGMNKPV
Test [4] deals with T3, Kappa-type opioid receptor.
Description: Antagonist potency towards human kappa opioid receptor in [35S]GTP-gamma-S, assay
Test [5] addresses T2, Mu-type opioid receptor.
Description: Antagonist potency towards human mu opioid receptor in [35S]GTP-gamma-S, assay
The target in test [6] is T1, Delta-type opioid receptor.
Description: Antagonist potency towards human delta opioid receptor in [35S]GTP-gamma-S, assay
Test [7] concerns the target T2, Mu-type opioid receptor. The source holds these as a separate data set.
Description: Agonist potency towards human mu opioid receptor in [35S]GTP-gamma-S, assay

T1 sequence (P41143 whole entry): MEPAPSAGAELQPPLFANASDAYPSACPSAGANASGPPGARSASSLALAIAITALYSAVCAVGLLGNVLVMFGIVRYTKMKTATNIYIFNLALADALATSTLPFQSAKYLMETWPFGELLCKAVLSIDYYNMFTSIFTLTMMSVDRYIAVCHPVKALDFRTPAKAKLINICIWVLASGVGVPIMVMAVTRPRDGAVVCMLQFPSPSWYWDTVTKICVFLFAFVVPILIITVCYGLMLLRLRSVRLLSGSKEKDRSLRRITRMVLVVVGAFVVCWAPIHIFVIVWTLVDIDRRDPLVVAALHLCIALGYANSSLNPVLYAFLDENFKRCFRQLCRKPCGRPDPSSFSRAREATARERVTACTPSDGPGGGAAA

Regarding `C=CCNC1CCc2ccc(O)cc2C1(C)C` (configuration not stated), the Ki – broadly, the dissociation constant of the complex between target and ligand, obtained from inhibition or displacement – in test [1] is 5830 nM; on Mu-type opioid receptor [2], 202 nM; in test [3], 63.7 nM.
`Oc1ccc2c3c1O[C@H]1c4[nH]c5c(c4C[C@@]4(O)[C@@H](C2)N(CC2CC2)CC[C@]314)C[C@@]1(O)[C@H]2Cc3ccc(O)c4c3[C@@]1(CCN2CC1CC1)[C@H]5O4` came in with a Ke in test [4] of 0.03 nM.
In the case of `CN(C/C=C/c1ccccc1)C1CCc2ccc(O)cc2C1(C)C` (configuration not stated), the Ki in test [1] was found to be 591 nM; at Mu-type opioid receptor [2] it was 39.7 nM; in test [3] it was 207 nM.
For `CN(CC1CC1)C1CCc2ccc(O)cc2C1(C)C` (configuration not stated), in that order: 601 nM, 104 nM and 146 nM.
Regarding `C=CCN(CC=C)C1CCc2ccc(O)cc2C1(C)C` (configuration not stated), the Ki was determined as 672 nM in test [1], 105 nM at Mu-type opioid receptor [2] and 55.8 nM in test [3].
For `CCCNC1CCc2ccc(O)cc2C1(C)C` (configuration not stated), in that order: greater than 10000 nM, 491 nM and 251 nM.
`CC1(C)c2cc(O)ccc2CCC1NC/C=C/c1ccccc1` (configuration not stated): the values for the Ke (in test [4]; on Mu-type opioid receptor [5]) were 42.7 nM and 67.7 nM, respectively. Moreover, the Ki in test [1] was 472 nM; on Mu-type opioid receptor [2] it was 10.7 nM; in test [3] it was 82.3 nM.
Regarding `CCCN(CCC)C1CCc2ccc(O)cc2C1(C)C` (configuration not stated), the Ki worked out at 2720 nM in test [1], 482 nM on Mu-type opioid receptor [2] and 552 nM in test [3].
In the case of `CC1(C)c2cc(O)ccc2CCC1NCC1CC1` (configuration not stated), the Ki in test [1] was determined as 3830 nM; on Mu-type opioid receptor [2], 312 nM; in test [3], 232 nM.
In the same order, the values of `CC1(C)c2cc(O)ccc2CCC1N(CC1CC1)CC1CC1` (configuration not stated) are 5770 nM, 422 nM and 1830 nM.
With `C=CCN(C)C1CCc2ccc(O)cc2C1(C)C` (configuration not stated), the Ki in test [1] worked out at 2220 nM; in test [3] it was 263 nM.
In the case of `CCCN(C)C1CCc2ccc(O)cc2C1(C)C` (configuration not stated), the Ki in test [1] was determined as 2090 nM; at Mu-type opioid receptor [2], 85 nM; in test [3] it was 184 nM.
For `CN(C)C1CCc2ccc(O)cc2C1(C)C` (configuration not stated), in that order: 4010 nM, 114 nM and 333 nM.
For `CO[C@H]1Cc2ccc(O)cc2C(C)(C)[C@@H]1NC/C=C/c1ccccc1`, the Ke in test [4] came out at 2.12 nM; in test [6], 26.3 nM; at Mu-type opioid receptor [5], 2.62 nM. Besides, the Ki in test [1] amounted to 22.4 nM; on Mu-type opioid receptor [2] it was 1.63 nM; in test [3], 7.5 nM.
In the case of `CC1(C)c2cc(O)ccc2CCC1N(C/C=C/c1ccccc1)C/C=C/c1ccccc1` (configuration not stated), the Ki in test [1] was greater than 10000 nM; at Mu-type opioid receptor [2] it was 268 nM; in test [3], 1250 nM.
For the compound `CO[C@H]1Cc2ccc(O)cc2C(C)(C)[C@@H]1N`, the Ke in test [4] stood at 49.3 nM; at Mu-type opioid receptor [7], 234 nM. Also, the Ki was 2430 nM in test [1], 17.5 nM at Mu-type opioid receptor [2] and 149 nM in test [3].
